Measurements published in US6066628A, “Non-iron metalloporphyrins and methods of use” (Emory University, priority 1998, dated 2000).
Converted amounts (≈) assume the structure as drawn. Where two headings read alike, the source gives them in different places.

Tests used:
E. coli = experiment: Disc diffusion sensitivity test; assay type: cell-based, Escherichia coli; details: E. coli; disc ~50 μg MP
E. aerogenes = experiment: Disc diffusion sensitivity test; assay type: cell-based, Enterobacter aerogenes; details: E. aerogenes; disc ~50 μg MP
K. oxytoca = experiment: Disc diffusion sensitivity test; assay type: cell-based, Klebsiella oxytoca; details: K. oxytoca; disc ~50 μg MP
M. smegmatis [1] = assay type: cell-based, Mycobacterium smegmatis; details: M. smegmatis LR222; for Minimal inhibitory concentration (MIC): LB + Tween 80 (Table 2)
F. menigosepticum = experiment: Disc diffusion sensitivity test; assay type: cell-based, Flavobacterium meningosepticum; details: F. meningosepticum; disc ~50 μg MP
B. subtilis = experiment: Disc diffusion sensitivity test; assay type: cell-based, Bacillus subtilis; details: for diameter (mm) of the inhibition zone: B. subtilis, disc ~50 μg MP
Y. enterocolitica [2] = experiment: microbe, parasite or virus in culture; assay type: cell-based
S. aureus [3] = assay type: cell-based, Staphylococcus aureus; details: for Minimal inhibitory concentration (MIC): methicillin-resistant S. aureus IR219, Nutrient broth (Table 2); for MIC: Staphylococcus aureus; for antibacterial activity: S. aureus
Ps. aeruginosa = experiment: Disc diffusion sensitivity test; assay type: cell-based, Pseudomonas aeruginosa; details: disc ~50 μg MP; note: key: -: resistant; N: not determined
C. freundii = experiment: Disc diffusion sensitivity test; assay type: cell-based, Citrobacter freundii; details: C. freundii; disc ~50 μg MP
S. aureus [4] = experiment: Disc diffusion sensitivity test; assay type: cell-based, Staphylococcus aureus; details: for diameter (mm) of the inhibition zone: S. aureus, disc ~50 μg MP
N. meningitidis = experiment: Disc diffusion sensitivity test; assay type: cell-based; details: disc ~50 μg MP
P. mirabills = experiment: Disc diffusion sensitivity test; assay type: cell-based, Proteus mirabilis; details: P. mirabilis; disc ~50 μg MP
E. faecalis = experiment: Disc diffusion sensitivity test; assay type: cell-based, Enterococcus faecalis; details: disc ~50 μg MP; note: key: -: resistant; N: not determined
Y. enterocolitica [5] = experiment: Disc diffusion sensitivity test; assay type: cell-based; details: disc ~50 μg MP
K. pneumoniae = experiment: Disc diffusion sensitivity test; assay type: cell-based, Klebsiella pneumoniae; details: K. pneumoniae; disc ~50 μg MP
S. marcescens = experiment: Disc diffusion sensitivity test; assay type: cell-based, Serratia marcescens; details: S. marcescens; disc ~50 μg MP
M. bovis = assay type: cell-based, Mycobacterium bovis; details: disc ~50 μg MP
S. crevisieae = experiment: Disc diffusion sensitivity test; assay type: cell-based, Saccharomyces cerevisiae; details: S. cerevisiae; disc ~50 μg MP
M. smegmatis [6] = experiment: Disc diffusion sensitivity test; assay type: cell-based, Mycobacterium smegmatis; details: disc ~50 μg MP
S. aureus [7] = experiment: Competition of heme/protoporphyrin IX with Ga-PPIX antibacterial activity; assay type: cell-based, Staphylococcus aureus
M. smegmatis [8] = experiment: as above
Y. enterocolitica [9] = experiment: as above
M. smegmatis [10] = experiment: Minimal bactericidal concentration; assay type: cell-based, Mycobacterium smegmatis; details: reduces plating efficiency more than 99.9%, minimal exposure to light
bacteria = assay type: cell-based; details: porphyrins without Ga ions; all tested bacteria
S. aureus [11] = experiment: Minimal bactericidal concentration; assay type: cell-based, Staphylococcus aureus; details: reduces plating efficiency more than 99.9%, minimal exposure to light
Experimental: Minimal bactericidal concentrations (MBCs) were determined essentially the same way as MICs except that the amount of killing with a particular concentration of porphyrin derivative was determined by plating on solid microbiological media (LB plates or LB+Tween 80). Media were solidified by the incorporation of 1.5% agar (Difco Laboratories). Concentrations of porphyrins that produced 99.9% reduction in bacterial counts were considered bactericidal [Hindler et al. (1994) supra].
MBC were determined by plating bacterial cultures that have been incubate
in the presence of MPs at concentrations higher than MIC. MBC was defined
as a concentration of a particular MP which reduces the plating efficienc
more than 99.9%. Experiments were done with minimal exposure to light
(addition of porphyrins waa done in the presence of artifical light).

Y. enterocolitica [12] = experiment: Minimal bactericidal concentration; assay type: cell-based; details: reduces plating efficiency more than 99.9%, minimal exposure to light
[13] = +1 μg/ml Ga-PPIX, competitor 1 μg/ml
[14] = +1 μg/ml Ga-PPIX, competitor 10 μg/ml
[15] = +1 μg/ml Ga-PPIX, competitor 20 μg/ml
[16] = +1 μg/ml Ga-PPIX, competitor 100 μg/ml
[17] = -1 μg/ml Ga-PPIX (without Ga-PPIX), 1 μg/ml
[18] = -1 μg/ml Ga-PPIX (without Ga-PPIX), 10 μg/ml
[19] = -1 μg/ml Ga-PPIX (without Ga-PPIX), 20 μg/ml
[20] = -1 μg/ml Ga-PPIX (without Ga-PPIX), 100 μg/ml

C=CC1=C(C)c2cc3[n-]c(cc4nc(cc5[n-]c(cc1n2)c(C)c5CCC(=O)O)C(CCC(=O)O)=C4C)c(C)c3C=C.[Ti+2] [Ti-PPIX]
diameter (mm) of the inhibition zone (E. coli): - | diameter (mm) of the inhibition zone (E. aerogenes): - | diameter (mm) of the inhibition zone (K. oxytoca): - | Minimal inhibitory concentration (MIC) (M. smegmatis [1]): > 40 µg/mL | diameter (mm) of the inhibition zone (F. menigosepticum): - | diameter (mm) of the inhibition zone (B. subtilis): 12 mm | Minimal inhibitory concentration (MIC) (Y. enterocolitica [2]): > 40 | Minimal inhibitory concentration (MIC) (S. aureus [3]): 40 µg/mL | diameter (mm) of the inhibition zone (Ps. aeruginosa): - | diameter (mm) of the inhibition zone (C. freundii): - | diameter (mm) of the inhibition zone (S. aureus [4]): - | diameter (mm) of the inhibition zone (N. meningitidis): - | diameter (mm) of the inhibition zone (P. mirabills): - | diameter (mm) of the inhibition zone (E. faecalis): - | diameter (mm) of the inhibition zone (Y. enterocolitica [5]): - | diameter (mm) of the inhibition zone (K. pneumoniae): -

C=CC1=C(C)C2=Cc3c(C=C)c(C)c4[n]3[Mg][n]3c(c(C)c(CCC(=O)O)c3=CC3=NC(=C4)C(C)=C3CCC(=O)O)=CC1=N2 [Mg-PPIX]
diameter (mm) of the inhibition zone (E. coli): - | diameter (mm) of the inhibition zone (E. aerogenes): - | diameter (mm) of the inhibition zone (K. oxytoca): - | diameter (mm) of the inhibition zone (F. menigosepticum): - | zone of inhibition at 50 µg/disc (B. subtilis; Bacillus subtilis, read-out: diameter (mm) of the inhibition zone): 15 mm | MIC (S. aureus [3]; read-out: Minimal inhibitory concentration (MIC)): > 10 µg/mL | diameter (mm) of the inhibition zone (Ps. aeruginosa): - | diameter (mm) of the inhibition zone (C. freundii): - | zone of inhibition at 50 µg/disc (S. aureus [4]; Staphylococcus aureus, read-out: diameter (mm) of the inhibition zone): 15 mm | diameter (mm) of the inhibition zone (N. meningitidis): - | diameter (mm) of the inhibition zone (P. mirabills): - | diameter (mm) of the inhibition zone (E. faecalis): - | diameter (mm) of the inhibition zone (Y. enterocolitica [5]): - | diameter (mm) of the inhibition zone (K. pneumoniae): -

C=CC1=C(C)c2cc3[n-]c(cc4nc(cc5[n-]c(cc1n2)c(C)c5CCC(=O)O)C(CCC(=O)O)=C4C)c(C)c3C=C.[Pd+2] [Pd-PPIX]
diameter (mm) of the inhibition zone (E. coli): - | diameter (mm) of the inhibition zone (E. aerogenes): - | diameter (mm) of the inhibition zone (K. oxytoca): - | Minimal inhibitory concentration (MIC) (M. smegmatis [1]): 20 µg/mL | diameter (mm) of the inhibition zone (F. menigosepticum): - | Minimal inhibitory concentration (MIC) (Y. enterocolitica [2]): > 40 | Minimal inhibitory concentration (MIC) (S. aureus [3]): 50 µg/mL | diameter (mm) of the inhibition zone (S. marcescens): - | diameter (mm) of the inhibition zone (Ps. aeruginosa): - | diameter (mm) of the inhibition zone (C. freundii): - | diameter (mm) of the inhibition zone (S. aureus [4]): - | diameter (mm) of the inhibition zone (N. meningitidis): - | diameter (mm) of the inhibition zone (M. bovis): - | diameter (mm) of the inhibition zone (P. mirabills): - | diameter (mm) of the inhibition zone (E. faecalis): - | diameter (mm) of the inhibition zone (K. pneumoniae): -

C=CC1=C(C)c2cc3[n-]c(cc4nc(cc5[n-]c(cc1n2)c(C)c5C=C)C(C)=C4CCC(=O)O)c(CCC(=O)O)c3C.[Zn+2] [Zn-PPIX]
diameter (mm) of the inhibition zone (S. crevisieae): - | Minimal inhibitory concentration (MIC) (M. smegmatis [1]): 20 µg/mL | diameter (mm) of the inhibition zone (B. subtilis): - | diameter (mm) of the inhibition zone (M. smegmatis [6]): - | Minimal inhibitory concentration (MIC) (Y. enterocolitica [2]): > 40 | antibacterial activity (S. aureus [3]): some activity | Minimal inhibitory concentration (MIC) (S. aureus [3]): 3.2 µg/mL | diameter (mm) of the inhibition zone (S. marcescens): - | diameter (mm) of the inhibition zone (Ps. aeruginosa): - | diameter (mm) of the inhibition zone (S. aureus [4]): 12 mm | diameter (mm) of the inhibition zone (N. meningitidis): 10 mm | diameter (mm) of the inhibition zone (M. bovis): - | diameter (mm) of the inhibition zone (E. faecalis): - | diameter (mm) of the inhibition zone (Y. enterocolitica [5]): -

C=CC1=C(C)c2cc3[nH]c(cc4nc(cc5[nH]c(cc1n2)c(C)c5CCC(=O)O)C(CCC(=O)O)=C4C)c(C)c3C=C [PPIX, protoporphyrin IX]
MIC (M. smegmatis [1]; Mycolicibacterium smegmatis, dark (Table 10), read-out: MIC): > 40 µg/mL | growth (S. aureus [7]; [13]): - | growth (S. aureus [7]; [14]): - | growth (S. aureus [7]; [15]): - | growth (S. aureus [7]; [16]): + | growth (S. aureus [7]; [17]): + | growth (S. aureus [7]; [18]): + | growth (S. aureus [7]; [19]): + | growth (S. aureus [7]; [20]): + | antagonism of Ga-PPIX antibacterial activity (S. aureus [7]; heme 10- to 100-fold molar excess, protoporphyrin IX 100-fold excess): some antagonizing effect | MIC (S. aureus [3]; S. aureus IR2419, dark (Table 10), read-out: MIC): 50 µg/mL (≈ 88.9 µM) | growth (M. smegmatis [8]; [13]): - | growth (M. smegmatis [8]; [15]): + | growth (M. smegmatis [8]; [16]): + | growth (M. smegmatis [8]; [17]): + | growth (M. smegmatis [8]; [18]): + | growth (M. smegmatis [8]; [19]): + | growth (M. smegmatis [8]; [20]): + | antagonism of Ga-PPIX antibacterial activity (M. smegmatis [8]; heme 10- to 100-fold molar excess, protoporphyrin IX 20- and 100-fold excess): antagonized | growth (Y. enterocolitica [9]; [13]): - | growth (Y. enterocolitica [9]; [14]): - | growth (Y. enterocolitica [9]; [15]): - | growth (Y. enterocolitica [9]; [16]): - | growth (Y. enterocolitica [9]; [17]): + | growth (Y. enterocolitica [9]; [18]): + | growth (Y. enterocolitica [9]; [19]): + | growth (Y. enterocolitica [9]; [20]): - | antagonism of Ga-PPIX antibacterial activity (Y. enterocolitica [9]; Y. enterocolitica fur mutant): not able to antagonize | MBC (M. smegmatis [10]; Mycolicibacterium smegmatis): > 20 µg/mL | MICs (bacteria): very large MICs | MBC (S. aureus [11]; Staphylococcus aureus): > 40 µg/mL | MBC (Y. enterocolitica [12]; Yersinia enterocolitica): > 40 µg/mL

C=CC1=C(C)c2cc3[n-]c(cc4nc(cc5[n-]c(cc1n2)c(C)c5CCC(=O)O)C(CCC(=O)O)=C4C)c(C)c3C=C.[Ru+2] [Ru-PPIX]
diameter (mm) of the inhibition zone (S. crevisieae): - | Minimal inhibitory concentration (MIC) (M. smegmatis [1]): 20 µg/mL | diameter (mm) of the inhibition zone (F. menigosepticum): - | diameter (mm) of the inhibition zone (B. subtilis): - | diameter (mm) of the inhibition zone (M. smegmatis [6]): - | Minimal inhibitory concentration (MIC) (Y. enterocolitica [2]): > 40 | antibacterial activity (S. aureus [3]): some activity | Minimal inhibitory concentration (MIC) (S. aureus [3]): 5 µg/mL | diameter (mm) of the inhibition zone (S. marcescens): - | diameter (mm) of the inhibition zone (Ps. aeruginosa): - | Minimal bactericidal concentration (MBC) (M. smegmatis [10]): > 20 | diameter (mm) of the inhibition zone (S. aureus [4]): 12 mm | diameter (mm) of the inhibition zone (N. meningitidis): 11 mm | diameter (mm) of the inhibition zone (M. bovis): - | diameter (mm) of the inhibition zone (E. faecalis): - | Minimal bactericidal concentration (MBC) (S. aureus [11]): 10 | Minimal bactericidal concentration (MBC) (Y. enterocolitica [12]): > 40 | diameter (mm) of the inhibition zone (Y. enterocolitica [5]): -
